Assays:
[1] = cited from earlier work
[2] = Plasma sCT Cmax in Beagle dogs after oral tablet (ELISA); format: in vivo; conditions: for Cmax: Beagle, dog, plasma, po, 1.7 mg, oral tablet 1.7 mg sCT
Protocol: Following application of the indicated amounts of HPMC to the indicated weight gain (in those examples utilizing the undercoat), the tablets were then sealed with an enteric coat made of Eudragit L30D-55 to the indicated further weight gain. Beagle dogs were given a tablet of the indicated combination of undercoat-enteric coat and aliquots of blood were taken at 15 minute intervals for 4 hours. Plasma was separated from the blood samples and analyzed for sCT by ELISA.

In the case of CC(C)C[C@H](NC(=O)[C@H](CCCCN)NC(=O)CNC(=O)[C@H](CC(C)C)NC(=O)[C@@H](NC(=O)[C@@H]1CSSC[C@H](N)C(=O)N[C@@H](CO)C(=O)N[C@@H](CC(N)=O)C(=O)N[C@@H](CC(C)C)C(=O)N[C@@H](CO)C(=O)N[C@@H]([C@@H](C)O)C(=O)N1)C(C)C)C(=O)N[C@@H](CO)C(=O)N[C@@H](CCC(N)=O)C(=O)N[C@@H](CCC(=O)O)C(=O)N[C@@H](CC(C)C)C(=O)N[C@@H](Cc1c[nH]cn1)C(=O)N[C@@H](CCCCN)C(=O)N[C@@H](CC(C)C)C(=O)N[C@@H](CCC(N)=O)C(=O)N[C@H](C(=O)N[C@@H](Cc1ccc(O)cc1)C(=O)N1CCC[C@H]1C(=O)N[C@@H](CCCNC(=N)N)C(=O)N[C@H](C(=O)N[C@@H](CC(N)=O)C(=O)N[C@H](C(=O)NCC(=O)N[C@@H](CO)C(=O)NCC(=O)N[C@H](C(=O)N1CCC[C@H]1C(N)=O)[C@@H](C)O)[C@@H](C)O)[C@@H](C)O)[C@@H](C)O [sCT, salmon calcitonin], the “time after injection beyond which there are usually no detectable blood levels” value ([1]; injection at conventional dosages) is listed as “more than two”, the “peak levels at which some patients report side-effects such as flushing nausea” value ([1]; patients) is listed as at least 200 picograms per milliliter and the half-life ([1]; subcutaneous administration in man) is listed as 20 to 40 min. For the same molecule, the peak serum concentration ([1]; subcutaneous administration, 100 International units) was “about 250 picograms per milliliter”, the Cmax ([2]; HPMC undercoat 0%, L30D-55 enteric coat 4% tablet weight gain) was 0.07 ng/mL and the Cmax ([2]; HPMC undercoat 0%, L30D-55 enteric coat 7% tablet weight gain) was 0.121 ng/mL. For the same molecule, the Cmax ([2]; HPMC undercoat 3%, L30D-55 enteric coat 4% tablet weight gain) was 0.142 ng/mL, the Cmax ([2]; HPMC undercoat 3%, L30D-55 enteric coat 7% tablet weight gain) was 0.378 ng/mL and the Cmax ([2]; HPMC undercoat 6%, L30D-55 enteric coat 4% tablet weight gain) was 0.667 ng/mL. For the same molecule, the Cmax ([2]; HPMC undercoat 6%, L30D-55 enteric coat 7% tablet weight gain) was 0.51 ng/mL, the “increase of sCT Cmax when amount of enteric coat was increased nearly 1.75 fold” value ([2]; absence of an undercoat) was 1.7 fold and the “increase of sCT Cmax when an HPMC undercoat was included” value ([2]; one embodiment) was “more than 9 fold”.

Reference: patent US9399017B2, “Peptide pharmaceutical for oral delivery” (Enteris BioPharma, Inc., priority 2007, dated 2016)
